Laboratory results: patent US12391706B2, “Multi-target tyrosine kinase inhibitor” (SHENZHEN NEPTUNUS PHARMACEUTICAL RESEARCH INSTITUTE CO., …, priority 2020, dated 2025)

How the values were obtained:
[1] = Solubility test (water), Chinese Pharmacopoeia 2015; type: physicochemical; details: 25° C.±2° C., dissolution within 30 minutes
Description: The series of compounds synthesized in Examples 1-24 were subjected to solubility test (water), according to the solubility test methods in Chinese Pharmacopoeia, 2015 Edition. The specific test operations and evaluation criteria are as follows: An appropriate amount (1 mg-10 mg) of finely powdered compound was weighed, placed in a certain volume of solvent at 25° C.±2° C., and shaken vigorously for 30 seconds every 5 minutes; the dissolution within 30 minutes was observed. It was considered completely dissolved if there were no visible particles or droplets of the solute. [table]

[2] = system: MKN-45 gastric cancer cells; test: Gastric cancer cell MKN45 xenograft model; type: in vivo, nude mice; details: oral 100 mg·kg^−1 once a day for 14 days
Excerpt: • 1. Compounds (td32-4, td32-4P3, td32-4P6, td32-4P9, td32-4P10) were selected for in vivo activity evaluation at a single concentration. The animal model was gastric cancer cell MKN45 xenograft model.
Test method: 5×10^6 MKN-45 gastric cancer cells were inoculated under the fat pad of the right rib of nude mice, and the tumor formation was observed. Two weeks after the inoculation, the tumor-bearing mice were divided into groups and orally administered with td32-4, td32-4P3, td32-4P6, td32-4P9, and td32-4P10 at a dose of 100 mg·kg^−1, once a day for 14 days, respectively. Tumor volumes were measured with a caliper and recorded.

Row | Structure (SMILES) | Water solubility test Result [1] | tumor inhibitory effect (tumor volume) [2]
1 | O=C(O)CCC(=O)OCCn1cc(-c2cc3nccc(Oc4ccc(NC(=O)C5(C(=O)Nc6ccc(F)cc6)CC5)cc4F)c3s2)cn1 [td32-4P1, 4-(2-(4-(7-(2-fluoro-4-(1-((4-fluorophenyl)carbamoyl)cyclopropane-1-carboxamide)phenoxy)thieno[3,2-b]pyridin-2-yl)-1H-pyrazolyl-1-yl)ethoxy)-4-oxobutyric acid] | F (1 g of solute is soluble in 1000~10000 mL of sovent) | –
2 | O=C(Nc1ccc(F)cc1)C1(C(=O)Nc2ccc(Oc3ccnc4cc(-c5cnn(CCOP(=O)(O)O)c5)sc34)c(F)c2)CC1 [td32-4P2, 2-(4-(7-(2-fluoro-4-(1-((4-fluorophenyl)carbamoyl)cyclopropane-1-carboxamide)phenoxy)thieno[3,2-b]pyridin-2-yl)-1H-pyrazolyl-1-yl)ethyl phosphate] | F (1 g of solute is soluble in 1000~10000 mL of sovent) | –
3 | CCN(CC)CC(=O)OCCn1cc(-c2cc3nccc(Oc4ccc(NC(=O)C5(C(=O)Nc6ccc(F)cc6)CC5)cc4F)c3s2)cn1 [td32-4P4, 2-(4-(7-(2-fluoro-4-(1-((4-fluorophenyl)carbamoyl)cyclopropane-1-carboxamide)phenoxy)thieno[3,2-b]pyridin-2-yl)-1H-pyrazolyl-1-yl)ethyldiethyl glycinate] | C (1 g of solute is soluble in 10~30 mL of sovent) | –
4 | O=C(CN1CCOCC1)OCCn1cc(-c2cc3nccc(Oc4ccc(NC(=O)C5(C(=O)Nc6ccc(F)cc6)CC5)cc4F)c3s2)cn1 [td32-4P5, 2-(4-(7-(2-fluoro-4-(1-((4-fluorophenyl)carbamoyl)cyclopropane-1-carboxamide)phenoxy)thieno[3,2-b]pyridin-2-yl)-1H-pyrazolyl-1-yl)ethyl 2-morpholine acetate] | C (1 g of solute is soluble in 10~30 mL of sovent) | –
5 | NCC(=O)OCCn1cc(-c2cc3nccc(Oc4ccc(NC(=O)C5(C(=O)Nc6ccc(F)cc6)CC5)cc4F)c3s2)cn1 [td32-4P6, 2-(4-(7-(2-fluoro-4-(1-((4-fluorophenyl)carbamoyl)cyclopropane-1-carboxamide)phenoxy)thieno[3,2-b]pyridin-2-yl)-1H-pyrazolyl-1-yl)ethyl glycinate] | C (1 g of solute is soluble in 10~30 mL of sovent) | moderate inhibitory activity
6 | CC(N)C(=O)OCCn1cc(-c2cc3nccc(Oc4ccc(NC(=O)C5(C(=O)Nc6ccc(F)cc6)CC5)cc4F)c3s2)cn1 (centres unmarked) [td32-4P7, 2-(4-(7-(2-fluoro-4-(1-((4-fluorophenyl)carbamoyl)cyclopropane-1-carboxamide)phenoxy)thieno[3,2-b]pyridin-2-yl)-1H-pyrazolyl-1-yl)ethyl alaninate] | D (1 g of solute is soluble in 30~100 mL of sovent) | –
7 | CC(C)CC(N)C(=O)OCCn1cc(-c2cc3nccc(Oc4ccc(NC(=O)C5(C(=O)Nc6ccc(F)cc6)CC5)cc4F)c3s2)cn1 (centres unmarked) [td32-4P8, 2-(4-(7-(2-fluoro-4-(1-((4-fluorophenyl)carbamoyl)cyclopropane-1-carboxamide)phenoxy)thieno[3,2-b]pyridin-2-yl)-1H-pyrazolyl-1-yl)ethyl leucinate] | E (1 g of solute is soluble in 100~1000 mL of sovent) | –
8 | CCC(C)C(N)C(=O)OCCn1cc(-c2cc3nccc(Oc4ccc(NC(=O)C5(C(=O)Nc6ccc(F)cc6)CC5)cc4F)c3s2)cn1 (centres unmarked) [td32-4P9, 2-(4-(7-(2-fluoro-4-(1-(4-fluorophenyl)carbamoyl)cyclopropane-1-carboxamide)phenoxy)thieno[3,2-b]pyridin-2-yl)-1H-pyrazolyl-1-yl)ethyl isoleucinate] | D (1 g of solute is soluble in 30~100 mL of sovent) | potent tumor inhibitory effect
9 | CSCCC(N)C(=O)OCCn1cc(-c2cc3nccc(Oc4ccc(NC(=O)C5(C(=O)Nc6ccc(F)cc6)CC5)cc4F)c3s2)cn1 (centres unmarked) [td32-4P11, 2-(4-(7-(2-fluoro-4-(1-((4-fluorophenyl)carbamoyl)cyclopropane-1-carboxamide)phenoxy)thieno[3,2-b]pyridin-2-yl)-1H-pyrazolyl-1-yl)ethyl methioninate] | E (1 g of solute is soluble in 100~1000 mL of sovent) | –
10 | NC(Cc1ccccc1)C(=O)OCCn1cc(-c2cc3nccc(Oc4ccc(NC(=O)C5(C(=O)Nc6ccc(F)cc6)CC5)cc4F)c3s2)cn1 [td32-4P12, 2-(4-(7-(2-fluoro-4-(1-((4-fluorophenyl)carbamoyl)cyclopropane-1-carboxamide)phenoxy)thieno[3,2-b]pyridin-2-yl)-1H-pyrazolyl-1-yl)ethyl L-phenylalaninate] | F (1 g of solute is soluble in 1000~10000 mL of sovent) | –
11 | O=C(OCCn1cc(-c2cc3nccc(Oc4ccc(NC(=O)C5(C(=O)Nc6ccc(F)cc6)CC5)cc4F)c3s2)cn1)C1CCCN1 (centres unmarked) [td32-4P13, 2-(4-(7-(2-fluoro-4-(1-((4-fluorophenyl)carbamoyl)cyclopropane-1-carboxamide)phenoxy)thieno[3,2-b]pyridin-2-yl)-1H-pyrazolyl-1-yl)ethyl prolinate] | E (1 g of solute is soluble in 100~1000 mL of sovent) | –
12 | NC(=O)CC(N)C(=O)OCCn1cc(-c2cc3nccc(Oc4ccc(NC(=O)C5(C(=O)Nc6ccc(F)cc6)CC5)cc4F)c3s2)cn1 (centres unmarked) [td32-4P14, 2-(4-(7-(2-fluoro-4-(1-((4-fluorophenyl)carbamoyl)cyclopropane-1-carboxamide)phenoxy)thieno[3,2-b]pyridin-2-yl)-1H-pyrazolyl-1-yl)ethyl asparaginate] | D (1 g of solute is soluble in 30~100 mL of sovent) | –
13 | NC(=O)CCC(N)C(=O)OCCn1cc(-c2cc3nccc(Oc4ccc(NC(=O)C5(C(=O)Nc6ccc(F)cc6)CC5)cc4F)c3s2)cn1 (centres unmarked) [td32-4P15, 2-(4-(7-(2-fluoro-4-(1-((4-fluorophenyl)carbamoyl)cyclopropane-1-carboxamide)phenoxy)thieno[3,2-b]pyridin-2-yl)-1H-pyrazolyl-1-yl)ethyl glutaminate] | D (1 g of solute is soluble in 30~100 mL of sovent) | –
14 | COC(CNCC(=O)OCCn1cc(-c2cc3nccc(Oc4ccc(NC(=O)C5(C(=O)Nc6ccc(F)cc6)CC5)cc4F)c3s2)cn1)OC [td32-4P17, 2-(4-(7-(2-fluoro-4-(1-((4-fluorophenyl)carbamoyl)cyclopropane-1-carboxamide)phenoxy)thieno[3,2-b]pyridin-2-yl)-1H-pyrazolyl-1-yl)ethyl(2,2-dimethoxyethyl) glycinate] | E (1 g of solute is soluble in 100~1000 mL of sovent) | –
15 | CC(C(=O)OCCn1cc(-c2cc3nccc(Oc4ccc(NC(=O)C5(C(=O)Nc6ccc(F)cc6)CC5)cc4F)c3s2)cn1)N(C)C (centres unmarked) [td32-4P18, 2-(4-(7-(2-fluoro-4-(1-((4-fluorophenyl)carbamoyl)cyclopropane-1-carboxamide)phenoxy)thieno[3,2-b]pyridin-2-yl)-1H-pyrazolyl-1-yl)ethyl N,N-dimethyl alaninate] | D (1 g of solute is soluble in 30~100 mL of sovent) | –
16 | O=C(OCCn1cc(-c2cc3nccc(Oc4ccc(NC(=O)C5(C(=O)Nc6ccc(F)cc6)CC5)cc4F)c3s2)cn1)c1ccc(CN2CCOCC2)cc1 [td32-4P19, 2-(4-(7-(2-fluoro-4-(1-((4-fluorophenyl)carbamoyl)cyclopropane-1-carboxamide)phenoxy)thieno[3,2-b]pyridin-2-yl)-1H-pyrazolyl-1-yl)ethyl 4-(morpholinylmethyl) benzoate] | F (1 g of solute is soluble in 1000~10000 mL of sovent) | –
17 | O=C(OCCn1cc(-c2cc3nccc(Oc4ccc(NC(=O)C5(C(=O)Nc6ccc(F)cc6)CC5)cc4F)c3s2)cn1)c1cccc(CN2CCOCC2)c1 [td32-4P20, 2-(4-(7-(2-fluoro-4-(1-((4-fluorophenyl)carbamoyl)cyclopropane-1-carboxamide)phenoxy)thieno[3,2-b]pyridin-2-yl)-1H-pyrazolyl-1-yl)ethyl 3-(morpholinylmethyl) benzoate] | F (1 g of solute is soluble in 1000~10000 mL of sovent) | –
18 | CN1CCN(Cc2ccc(C(=O)OCCn3cc(-c4cc5nccc(Oc6ccc(NC(=O)C7(C(=O)Nc8ccc(F)cc8)CC7)cc6F)c5s4)cn3)cc2)CC1 [td32-4P21, 2-(4-(7-(2-fluoro-4-(1-((4-fluorophenyl)carbamoyl)cyclopropane-1-carboxamide)phenoxy)thieno[3,2-b]pyridin-2-yl)-1H-pyrazol-1-yl)ethyl 4-((methylpiperazin-1-yl)methyl) benzoate] | D (1 g of solute is soluble in 30~100 mL of sovent) | –
19 | CN1CCN(Cc2cccc(C(=O)OCCn3cc(-c4cc5nccc(Oc6ccc(NC(=O)C7(C(=O)Nc8ccc(F)cc8)CC7)cc6F)c5s4)cn3)c2)CC1 [td32-4P22, 2-(4-(7-(2-fluoro-4-(1-((4-fluorophenyl)carbamoyl)cyclopropane-1-carboxamide)phenoxy)thieno[3,2-b]pyridin-2-yl)-1H-pyrazolyl-1-yl)ethyl 3-((methylpiperazin-1-yl)methyl) benzoate] | D (1 g of solute is soluble in 30~100 mL of sovent) | –
20 | O=C(OCCn1cc(-c2cc3nccc(Oc4ccc(NC(=O)C5(C(=O)Nc6ccc(F)cc6)CC5)cc4F)c3s2)cn1)c1ccc(CN2CCCC2)cc1 [td32-4P23] | D (1 g of solute is soluble in 30~100 mL of sovent) | –
21 | O=C(OCCn1cc(-c2cc3nccc(Oc4ccc(NC(=O)C5(C(=O)Nc6ccc(F)cc6)CC5)cc4F)c3s2)cn1)c1cccc(CN2CCCC2)c1 [td32-4P24] | D (1 g of solute is soluble in 30~100 mL of sovent) | –
